Measured values published in patent US10183015B2, “Heterocyclic compounds and methods of use” (Medivation Technologies LLC, priority 2015, dated 2019).
Values joined by “and” are separate entries in the source; they are usually repeats but may differ in a detail not shown here. Equal entries are not always repeated.

How the values were obtained:
[1] = test system: 60% high fat Paigen diet induced NASH mouse model; assay: Short-term Paigen-diet NASH mouse model: NAFLD (NAS) score histopathology; type: in vivo; parameters: NAS score: total / NAS score: steatose / NAS score: inflammation / NAS score: fibrosis / NAS score: hepatocyte ballooning: scale not given here
Method: To investigate whether Compound #37 prevents the development of pathology associated with NASH and steatosis in an acute exploratory disease model, a study was conducted using a diet-induced acute liver steatosis model in mice. […]
After acclimation, 8-week old male C57Bl/6J mice (Charles River) weighing about 25 g were randomized in 4 groups according their body weight and treated once daily around noon by oral gavage with vehicle, […] (2-hydroxypropyl)-β-cyclodextrin (HP-β-CD) (n=10); Group 2: Compound #37, 5 mg/kg (n=10) Group 3: Compound #37, 20 mg/kg (n=10) Group 4: Compound #37, 40 mg/kg (n=10). During the treatment period, body weight and food intake (measured over 24h) were measured 3 times per week and once a week, respectively. During the acclimation, all mice were fed a standard diet (Special Diets Services RM1 (E), product no. 801492) and tap water ad libitum. After the acclimation period, mice were fed until the end of the experiment with a 60% high fat Paigen diet (60 kcal % fat, 1.25% cholesterol, and 0.5% cholate; D11061901, Research Diet) and tap water ad libitum.
NAFLD score analysis. A 0.5 cm^3 piece of liver was fixed in 10% formalin for 48-72h, stored in ethanol 70° at 4° C., and processed for eosin/hematoxylin staining and NAFLD score analysis. One section (thickness 3-5 μm) per block was deposited on Superfrost+slides for hematoxylin-eosin staining. Individual slides having a single hepatic lobe section stained with H&E were digitized using a Nanozoomer from Hamamatsu. Sections were evaluated with knowledge of groups. Each section was evaluated and individually scored. A NAFLD scoring system (NAS) adapted from Kleiner et al. (Hepatology 41, 1313-21, 2005), Wu et al. (BMC Vet. Res. 10, 162, 2014), and Lee et al. (J. Lipid Res. 48, 1885-96, 2007). A total of four variables were qualitatively assessed and ranked with a score: (1) hepatocellular steatosis, (2) liver inflammation, (3) lobular fibrosis, and (4) hepatocyte ballooning.

FAS = assay: DIN mouse model: hepatic FAS gene expression; type: in vivo; parameters: key to 2^DDct: expression relative to vehicle group, normalized to 18S; settings: 20 mg/kg group; for 18S: Gene Expression: FAS table, 18S reference; for 2^DDct / DDct / Dct / FAS: Gene Expression: FAS
Method: Gene expression analysis. Hepatic expression levels of genes involved in lipid metabolism (FAS, SREBP1, ACC1, SCD1), cholesterol metabolism (HMG-CoAR, LDLR), SREBP proteolysis (SCAP, INSIG1), ER stress (PERK), oxidative stress (NRF2), inflammation (MCP-1), and fibrosis (collagen 1α1) were quantified by RTqPCR. Expression level was normalized to 18S gene expression and relative expression to vehicle group was calculated with the […] method.
Male C57Bl/6J mice (8 weeks old) were housed in enriched ventilated cages (31×12.5×12.7 cm) throughout the experimental phase. Animals' cages litters were changed at least once a week. Animal were housed 5 per cage on inverted 12-hour light cycle (at 09:00 am lights off), 22±2° C. and 55±10% relative humidity. The acclimation period was 20 days. During the acclimation period, all mice were fed a standard diet (RM1 (E) 801492, SDS) and tap water ad libitum. After the acclimation period, mice were fed with the DIN diet (60% fat, cholesterol enriched) and fructose-enriched tap water ad libitum until the end of the experiment.
At 6 weeks of diet, mice were 4-hour fasted (09:00 am to 1:00 pm) and blood (150 μl/EDTA) was collected at 01:00 pm by retro-orbital bleeding under isoflurane anesthesia. Mice were then allocated in 2 homogenous groups (n=12/group) according to their plasma levels of ALT (average levels: 685U/L), AST (average levels: 627U/L) and HOMA-IR index (average value: 4.7), into 2 homogenous groups (see values at day 0 in Tables 15A and 15B ALT/AST and Tables 16A and 16B for HOMA-IR). Mice were then treated once daily by oral gavage with vehicle (Group 1) or Compound #37 at 20 mg/kg (Group 2) for 70 days.
Hepatic expression levels of genes involved in lipid (FAS, SREBP1, ACC1, SCD1), cholesterol metabolism (HMG-CoAR, LDLR), in SREBP proteolysis (SCAP, INSIG1), in ER stress (PERK), oxidative stress (NRF2), and inflammation (MCP-1) were not changed. However, expression of collagen 1α1, involved in liver fibrosis, was reduced by 66% in mice treated with Compound #37 (p<0.05 vs. vehicle).

[2] = 5 mg/kg, 21 days, group mean, n 10
[3] = 20 mg/kg, 21 days, group mean, n 6
[4] = 40 mg/kg, 9 days, group mean, n 4

CC(C)Cc1cc(-c2nc(-c3ccc(NS(=O)(=O)C(F)(F)F)cc3Cl)cs2)ccn1 [Compound 37, N-(3-chloro-4-(2-(2-isobutylpyridin-4-yl)thiazol-4-yl)phenyl)-1,1,1-trifluoromethanesulfonamide]
animals with Grade 1 hepatocellular steatosis ([1]; 5 mg/kg, 21 days): 9/10 | animals with grade-3 inflammation ([1]; 5 mg/kg, 21 days): 4/10 | animals with limited periportal fibrosis (mostly Grade 1) ([1]; 5 mg/kg, 21 days): 10/10 | NAS score: fibrosis [1, 2]: 1.2 | NAS score: hepatocyte ballooning [1, 2]: 0.3 | NAS score: inflammation [1, 2]: 2 | NAS score: steatose [1, 2]: 1.1 | NAS score: total [1, 2]: 4.6 | NAS score: total ([1]; 5 mg/kg, 21 days, individual animals): 4 (2×) and 5 (4×) and 3 (2×) and 6 (2×) | animals with Grade 1 hepatocellular steatosis ([1]; 20 mg/kg, 21 days): 3/6 | animals with grade-3 inflammation ([1]; 20 mg/kg, 21 days): 1/6 | animals with limited periportal fibrosis (mostly Grade 1) ([1]; 20 mg/kg, 21 days): 3/6 | NAS score: fibrosis [1, 3]: 0.5 | NAS score: hepatocyte ballooning [1, 3]: 0 | NAS score: inflammation [1, 3]: 1.67 | NAS score: steatose [1, 3]: 0.5 | NAS score: total [1, 3]: 2.67 | NAS score: total ([1]; 20 mg/kg, 21 days, individual animals): 2 (2×) and 3 (2×) and 5 and 1 | NAS score: fibrosis [1, 4]: 0 | NAS score: hepatocyte ballooning [1, 4]: 1 | NAS score: inflammation [1, 4]: 0 | NAS score: steatose [1, 4]: 2 | NAS score: total [1, 4]: 3 | NAS score: total ([1]; 40 mg/kg, 9 days, individual animals): 3 | 18S (FAS; individual animal, 20 mg/kg): 12.55 (2×) and 12.84 and 12.43 and 12.35 (2×) and 12.59 and 11.73 and 12.51 and 11.5 and 11.55 | 18S (FAS; mean, n 11): 12.3 | 2^DDct (FAS; individual animal, 20 mg/kg): 2.46 and 1.29 and 0.37 and 1.47 and 0.36 and 1.30 and 0.81 and 0.64 and 0.33 and 0.21 and 1.77 | DDct (FAS; individual animal, 20 mg/kg): −1.30 and −0.37 and 1.45 and −0.56 and 1.48 and −0.38 and 0.31 and 0.64 and 1.62 and 2.28 and −0.82 | Dct (FAS; individual animal, 20 mg/kg): 7.2 and 8.13 and 9.95 and 7.94 and 9.98 and 8.12 and 8.81 and 9.14 and 10.12 and 10.78 and 7.68 | FAS (FAS; individual animal, 20 mg/kg): 19.75 and 20.68 and 22.79 and 20.37 and 22.33 (2×) and 20.71 and 20.54 and 21.65 and 21.62 and 20.03 | 2^DDct (FAS; mean, n 11): 1 | DDct (FAS; mean, n 11): 0.40 | Dct (FAS; mean, n 11): 8.9 | FAS (FAS; mean, n 11): 21.2
